# Measured values from patent publication US20040127411A1, “Methods for treating lung cancer using insulin-like growth factor binding protein-3” (Insmed, Inc., priority 2002, published 2004).
# Read-outs that look alike come from different tables or passages of the source. Marks after values point to notes of the source that are not given here.
# How the values were obtained:
# 3LL Lewis lung tumor = assay: Treatment of 3LL murine Lewis lung tumors in C57BL6 mice; assay type: in vivo; conditions: for Mean Tumor Volume: day 23, mean ± SEM
# Description: Female C57BL6 mice (8 animals per group) received bilateral SC implants of 3LL Lewis lung tumor fragments on day 0 and were treated subcutaneously with vehicle, rhIGFBP-3 (3 or 10 mg/kg twice daily×21), carboplatin (25 or 50 mg/kg; IP; single dose) or a combination of agents beginning on day 2.
# [1] = tested on: LoVo colorectal carcinoma xenografts; assay: Treatment of LoVo human colorectal carcinoma xenografts with rhIGFBP-3 and irinotecan in balb/c nu/nu mice; assay type: in vivo; conditions: for effect after discontinuation of treatment: treatment discontinued day 21, monitored to day 40
# Description: Female balb/c nu/nu mice (8 animals per group) received bilateral SC implants of LoVo colorectal carcinoma fragments which were allowed to grow to volumes of 100-150 mm3 prior to initiation of treatment. Upon establishment of the tumors, mice were treated with vehicle, rhIGFBP-3 (3, 10 or 30 mg/kg twice daily; SC x 21), irinotecan (10 or 20 mg/kg; IP; 4 doses at 4 day intervals) or a combination of agents. All treatment was discontinued on day 21 and mice were monitored for tumor response out to day 40. Net tumor growth was calculated at each time point.
# SKBR3 = assay: Growth inhibition (MTT assay), SKBR3; assay type: cell-based, human
# MCF-7/HER2-18 = assay: Growth inhibition (MTT assay), MCF-7/HER2-18; assay type: cell-based, human
# [2] = tested on: MCF-7 human breast xenografts; assay: Early treatment of MCF-7 human breast xenografts in CD1 nu/nu mice; assay type: in vivo
# Description: Female CD1 nu/nu mice (12 animals per group) received SC implants of 5×10^6 MCF-7 cells. On the same day, mice received either vehicle or rhIGFBP-3 IP at a dose of 20 mg/kg. Mice were then treated with either vehicle or rhIGFBP-3 (20 mg/kg twice daily) for 10 weeks. Tumor volume was monitored beginning on week 2 and measured 3 times thereafter. […] In addition, the 3 tumors that did arise in the rhIGFBP-3 group were smaller than those in the control group.
# [3] = tested on: MCF-7 human breast cancer cells; conditions: for cell survival: 1 μg/mL, day 12
# Description: In a second experiment, MCF-7 cells were exposed to increasing doses of irradiation and rhIGFBP-3 24 hours after plating. Cell survival was determined on day 12.
# [4] = rat, in vivo, iv
# Description: (§1) The purpose of this study was to characterize the pharmacokinetic profile of rhIGFBP-3 following a single IV administration to rats. Adult male Sprague-Dawley rats (N=3/group) were administered doses of 0.8-160 mg/kg rhIGFBP-3 and blood specimens were collected for drug measurement.
# [5] = Pharmacokinetics of rhIGFBP-3 after single IV administration to rats; conditions: for AUC / Cmax: mean ± SD
# Description: as §1
# BT474/HerR = assay: Growth inhibition (MTT assay), BT474/HerR; assay type: cell-based, human
# [6] = tested on: MCF-7 human breast cancer cells; assay: MCF-7 cell proliferation (MTT) with increasing rhIGFBP-3; assay type: cell-based; conditions: 5% FBS, 4 days, increasing concentrations
# Description: FIG. 5(A) depicts the MCF-7 breast cancer cell proliferation as assayed by MTT in increasing concentrations of rhIGFBP-3.
# The purpose of this study was to evaluate the effects of rhIGFBP-3 alone and in combination with radiation therapy in MCF-7 human breast cancer cells. MCF-7 cells were plated and cultured in 5% FBS for 4 days with increasing concentrations of rhIGFBP-3 in the media.
# [7] = tested on: MCF-7 breast tumor xenografts; assay: Treatment of established MCF-7 human breast tumors with rhIGFBP-3 and paclitaxel in balb/c nu/nu mice; assay type: in vivo
# Description: Female balb/c nu/nu mice (8 animals per group) received bilateral SC implants of MCF-7 breast tumor fragments which were allowed to grow to volumes of 100-150 mm^3 prior to initiation of treatment. Upon establishment of the tumors, mice were treated with vehicle, rhIGFBP-3 (3, 10 or 30 mg/kg twice daily; SC×21), paclitaxel (10 or 20 mg/kg; IP; daily for 5 days) or a combination of agents. Tumors were measured twice weekly for 3 weeks and net tumor growth was calculated at each time point.
# SKBR3/IGF-IR = assay: Growth inhibition (MTT assay), SKBR3/IGF-IR; assay type: cell-based, human
# BT474 = assay: Growth inhibition (MTT assay), BT474; assay type: cell-based, human
# [8] = Pharmacokinetics of rhIGFBP-3 after single SC injection in rats; assay type: in vivo
# Description: The purpose of this study was to characterize the pharmacokinetic profile of rhIGFBP-3 following a single SC administration to rats. Adult male rats (N=5/group) were administered doses of 3-30 mg/kg rhIGFBP-3 by bolus SC injection and blood specimens were collected for drug concentration analysis.
# [9] = 20 mg/kg twice daily, after 10 weeks, mean ± SD
# [10] = IV, 8.0 mg/kg vs 0.8 mg/kg (ten fold increase in dose)
molecule,measurement,setting,value
"N.N.O=C([O-])C1(C(=O)[O-])CCC1.[Pt+2] [Carboplatin, carboplatin, reference compound]",Mean Tumor Volume,3LL Lewis lung tumor; 25 mg/kg IP single dose,144.92 ± 31.36* mm^3
same,Mean Tumor Volume,3LL Lewis lung tumor; 50 mg/kg IP single dose,187.36 ± 37.42* mm^3
"CCc1c2c(nc3ccc(OC(=O)N4CCC(N5CCCCC5)CC4)cc13)-c1cc3c(c(=O)n1C2)COC(=O)[C@]3(O)CC [irinotecan, reference compound]",effect after discontinuation of treatment,[1],persisting effect
"rhIGFBP-3: recombinant human insulin-like growth factor binding protein-3; preferred form from E. coli, native human sequence, lacks glycosylation",Growth Inhibition (MTT Assay),SKBR3; 0.1-100 μg/ml,20-40%
same,"effect when combined with Herceptin, in words",SKBR3; combined with Herceptin,modest effect
same,Growth Inhibition (MTT Assay),MCF-7/HER2-18; 0.1-100 μg/ml,15-55%
same,"effect when combined with Herceptin, in words","MCF-7/HER2-18; combined with Herceptin, compared to rhIGFBP-3 alone",marginal dose-dependent increase in growth inhibition
same,"growth inhibition in words, single agent",MCF-7/HER2-18; single agent,marked dose-dependent growth inhibition
same,Number of Mice with Tumors,"[2]; 20 mg/kg twice daily IP, after 10 weeks",3/12
same,MCF-7 tumor establishment compared to control,[2]; 20 mg/kg twice daily for 10 weeks,prevented MCF-7 tumor establishment
same,Mean Tumor Volume,[2]; [9],37.7 ± 42.0 mm^3
same,Mean Tumor Weight,[2]; [9],0.046 ± 0.047 g
same,"tumor volume compared to control, all mice in each group","[2]; end of treatment, p≦0.05",significantly lower
same,cell survival,[3]; 0 Gy,~65%
same,cell survival,[3]; 2 Gy,37%
same,cell survival,[3]; 4 Gy,21%
same,cell survival,[3]; 6 Gy,5%
same,effect on radiation-induced cell death,[3]; all radiation doses,accentuated this effect on cell death at all doses
same,"net tumor growth, combination with irinotecan",[1]; 30 mg/kg rhIGFBP-3 + 10 mg/kg irinotecan,optimal results
same,"inhibition of net tumor growth, single agent, vs 10 mg/kg irinotecan",[1]; 30 mg/kg twice daily SC x21,equally effective
same,effect after discontinuation of treatment,[1],persisting effect
same,CL/W,[4]; 0.8 mg/kg,7.07 ± 3.12 mL/min/kg
same,CL/W,[4]; 8 mg/kg,13.4 ± 1.62 mL/min/kg
same,CL/W,[4]; 80 mg/kg,6.33 ± 1.07 mL/min/kg
same,CL/W,[4]; 160 mg/kg,9.65 ± 2.42 mL/min/kg
same,drug concentration in the serum,"[5]; IV 0.8 mg/kg, four hours after administration, below quantitative limitation of the assay",< 300 ng/mL
same,AUC,"[5]; IV, 0.8 mg/kg",2172 ± 999 ng·h/mL
same,Cmax,"[5]; IV, 0.8 mg/kg",3067 ± 551 ng/mL
same,fold increase in AUC,[5]; [10],4.6 fold
same,fold increase in Cmax,[5]; [10],1.6 fold
same,AUC,"[5]; IV, 8.0 mg/kg",10057 ± 1248 ng·h/mL
same,Cmax,"[5]; IV, 8.0 mg/kg",4967 ± 1159 ng/mL
same,AUC,"[5]; IV, 80 mg/kg",215060 ± 39102 ng·h/mL
same,AUC,"[5]; IV, 160 mg/kg",287575 ± 64180 ng·h/mL
same,Cmax,"[5]; IV, 160 mg/kg",476667 ± 122202 ng/mL
same,drug serum concentrations 8 hours after dosing,"[5]; IV, all dose groups other than 0.8 mg/kg",detectable
same,Cmax,[5]; IV,360333 ± 62772 ng/mL
same,adverse clinical signs,"[5]; single IV, any dose tested (0.8-160 mg/kg)",no adverse clinical signs
same,Growth Inhibition (MTT Assay),BT474/HerR; 0.1-100 μg/ml,10-26%
same,"effect when combined with Herceptin, in words",BT474/HerR; combined with Herceptin,strong dose-dependent increase in Herceptin sensitivity
same,"growth inhibition in words, single agent",BT474/HerR; single agent,less pronounced effect
same,maximum growth suppression compared to control,[6],50%
same,Mean Tumor Volume,3LL Lewis lung tumor; 3 mg/kg twice daily SC x21,289.00 ± 42.97 mm^3
same,reduction in tumor volume compared with carboplatin,3LL Lewis lung tumor; 10 mg/kg twice daily,equal to that observed with the standard chemotherapeutic agent carboplatin
same,Mean Tumor Volume,3LL Lewis lung tumor; 10 mg/kg twice daily SC x21,149.73 ± 25.34* mm^3
same,"3LL Lewis lung tumor growth, single agent",3LL Lewis lung tumor; 3 or 10 mg/kg twice daily SC,dose-dependently inhibited
same,effect in combination with carboplatin,3LL Lewis lung tumor; rhIGFBP-3 3 or 10 mg/kg twice daily + carboplatin 25 or 50 mg/kg IP,did not potentiate the effects of carboplatin
same,"net tumor growth, single agent","[7]; 3, 10 or 30 mg/kg twice daily SC x21",did not inhibit net tumor growth
same,effect in combination with paclitaxel,[7]; maximum effect at 10 mg/kg rhIGFBP-3 and 20 mg/kg paclitaxel,enhanced the effect of paclitaxel
same,Growth Inhibition (MTT Assay),SKBR3/IGF-IR; 0.1-100 μg/ml,12-40%
same,"effect when combined with Herceptin, in words",SKBR3/IGF-IR; combined with Herceptin,strong dose-dependent increase in Herceptin sensitivity
same,"growth inhibition in words, single agent",SKBR3/IGF-IR; single agent,marked dose-dependent growth inhibition
same,Growth Inhibition (MTT Assay),BT474; 0.1-100 μg/ml,10-20%
same,"effect when combined with Herceptin, in words",BT474; combined with Herceptin,did not significantly enhance Herceptin sensitivity
same,absorption following SC administration,[8]; SC,readily absorbed into the circulation
same,AUC,"[8]; SC, 3 mg/kg",5347 ± 909 ng·h/mL
same,CL/W,"[8]; SC, 3 mg/kg",9.63 ± 2.03 mL/min/kg
same,Cmax,"[8]; SC, 3 mg/kg",751 ± 120 ng/mL
same,AUC,"[8]; SC, 10 mg/kg",12999 ± 933 ng·h/mL
same,CL/W,"[8]; SC, 10 mg/kg",12.9 ± 1 mL/min/kg
same,Cmax,"[8]; SC, 10 mg/kg",2255 ± 217 ng/mL
same,increase in AUC compared to the 3 mg/kg group,"[8]; SC, 10 mg/kg",approximately 2.5 fold
same,AUC,"[8]; SC, 30 mg/kg",54476 ± 7517 ng·h/mL
same,CL/W,"[8]; SC, 30 mg/kg",9.33 ± 1.42 mL/min/kg
same,Cmax,"[8]; SC, 30 mg/kg",6924 ± 1021 ng/mL
same,increase in AUC compared to the 3 mg/kg group,"[8]; SC, 30 mg/kg",~10 fold
same,signs of toxicity,"[8]; single SC, 3-30 mg/kg",No signs of toxicity
